Tests used:
Experiment in all cases: KINOMEscan
Format in all cases: binding
Conditions in all cases: read-out: %Ctrl @ 1000 nM
ADCK3 = target: T1, ADCK3 (Homo sapiens, UniProt Q8NI60)
T1 construct: purchased DiscoveRx KINOMEscan

SRPK1 = target: T2, SRPK1 (Homo sapiens, UniProt Q96SB4)
T2 construct: purchased DiscoveRx KINOMEscan

MET(M1250T) = target: T3, MET(M1250T) (Homo sapiens, UniProt P08581, M1250T)
T3 construct: purchased DiscoveRx KINOMEscan

PIK3CA(Q546K) = target: T4, PIK3CA(Q546K) (Homo sapiens, UniProt P42336, Q546K)
T4 construct: purchased DiscoveRx KINOMEscan

DAPK1 = target: T5, DAPK1 (Homo sapiens, UniProt P53355)
T5 construct: purchased DiscoveRx KINOMEscan

CIT = target: T6, CIT (Homo sapiens, UniProt O14578)
T6 construct: purchased DiscoveRx KINOMEscan

PRKD3 = target: T7, PRKD3 (Homo sapiens, UniProt O94806)
T7 construct: purchased DiscoveRx KINOMEscan

SGK = target: T8, SGK (Homo sapiens, UniProt O00141)
T8 construct: purchased DiscoveRx KINOMEscan
T8 sequence (O00141 whole entry): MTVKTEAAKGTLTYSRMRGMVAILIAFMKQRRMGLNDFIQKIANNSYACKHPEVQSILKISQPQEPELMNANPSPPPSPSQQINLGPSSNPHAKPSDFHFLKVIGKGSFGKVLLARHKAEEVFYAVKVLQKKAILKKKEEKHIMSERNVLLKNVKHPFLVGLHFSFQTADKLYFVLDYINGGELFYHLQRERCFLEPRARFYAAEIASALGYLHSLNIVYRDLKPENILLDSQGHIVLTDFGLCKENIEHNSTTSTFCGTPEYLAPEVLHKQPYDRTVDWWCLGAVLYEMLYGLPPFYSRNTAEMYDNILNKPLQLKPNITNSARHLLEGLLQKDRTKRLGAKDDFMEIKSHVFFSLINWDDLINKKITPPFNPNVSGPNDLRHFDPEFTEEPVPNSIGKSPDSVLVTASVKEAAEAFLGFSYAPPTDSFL

MYO3A = target: T9, MYO3A (Homo sapiens, UniProt Q8NEV4)
T9 construct: purchased DiscoveRx KINOMEscan

CAMK2A = target: T10, CAMK2A (Homo sapiens, UniProt Q9UQM7)
T10 construct: purchased DiscoveRx KINOMEscan

PIK3CB = target: T11, PIK3CB (Homo sapiens, UniProt P42338)
T11 construct: purchased DiscoveRx KINOMEscan
T11 sequence (P42338 whole entry): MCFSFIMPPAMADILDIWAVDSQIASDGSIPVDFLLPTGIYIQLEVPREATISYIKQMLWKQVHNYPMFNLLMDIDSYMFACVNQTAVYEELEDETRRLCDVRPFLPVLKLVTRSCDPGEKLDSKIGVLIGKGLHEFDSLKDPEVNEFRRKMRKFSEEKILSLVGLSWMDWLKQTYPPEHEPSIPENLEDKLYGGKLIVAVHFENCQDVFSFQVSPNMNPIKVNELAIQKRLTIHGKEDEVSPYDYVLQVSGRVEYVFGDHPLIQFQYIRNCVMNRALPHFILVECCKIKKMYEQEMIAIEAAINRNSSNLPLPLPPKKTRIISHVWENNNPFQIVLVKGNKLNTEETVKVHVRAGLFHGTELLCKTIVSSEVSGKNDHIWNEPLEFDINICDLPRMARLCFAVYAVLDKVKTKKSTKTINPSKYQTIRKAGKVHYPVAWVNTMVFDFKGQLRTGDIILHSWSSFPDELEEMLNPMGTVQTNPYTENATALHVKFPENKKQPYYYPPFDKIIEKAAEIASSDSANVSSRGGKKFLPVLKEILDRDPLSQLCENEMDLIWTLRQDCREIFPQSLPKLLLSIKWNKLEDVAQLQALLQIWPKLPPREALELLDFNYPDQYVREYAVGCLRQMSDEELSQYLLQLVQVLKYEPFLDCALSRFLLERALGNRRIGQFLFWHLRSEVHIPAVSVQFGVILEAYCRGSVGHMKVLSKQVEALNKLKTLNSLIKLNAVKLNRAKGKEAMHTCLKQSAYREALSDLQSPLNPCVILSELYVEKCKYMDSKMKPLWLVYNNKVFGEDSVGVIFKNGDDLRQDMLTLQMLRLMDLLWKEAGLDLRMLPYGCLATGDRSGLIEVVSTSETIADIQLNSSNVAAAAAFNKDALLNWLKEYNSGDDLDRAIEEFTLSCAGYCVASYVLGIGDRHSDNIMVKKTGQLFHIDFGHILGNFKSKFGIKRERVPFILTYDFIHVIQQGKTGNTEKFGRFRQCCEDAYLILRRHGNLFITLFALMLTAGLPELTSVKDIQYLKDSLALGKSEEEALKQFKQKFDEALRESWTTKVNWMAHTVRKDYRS

MEK3 = target: T12, MEK3 (Homo sapiens, UniProt P46734)
T12 construct: purchased DiscoveRx KINOMEscan

p38-gamma = target: T13, p38-gamma (Homo sapiens, UniProt P53778)
T13 construct: purchased DiscoveRx KINOMEscan

ULK2 = target: T14, ULK2 (Homo sapiens, UniProt Q8IYT8)
T14 construct: purchased DiscoveRx KINOMEscan

ROCK2 = target: T15, ROCK2 (Homo sapiens, UniProt O75116)
T15 construct: purchased DiscoveRx KINOMEscan

TIE2 = target: T16, TIE2 (Homo sapiens, UniProt Q02763)
T16 construct: purchased DiscoveRx KINOMEscan

CSK = target: T17, CSK (Homo sapiens, UniProt P41240)
T17 construct: purchased DiscoveRx KINOMEscan

IRAK4 = target: T18, IRAK4 (Homo sapiens, UniProt Q9NWZ3)
T18 construct: purchased DiscoveRx KINOMEscan

DRAK2 = target: T19, DRAK2 (Homo sapiens, UniProt O94768)
T19 construct: purchased DiscoveRx KINOMEscan

DYRK1A = target: T20, DYRK1A (Homo sapiens, UniProt Q13627)
T20 construct: purchased DiscoveRx KINOMEscan

KIT(A829P) = target: T21, KIT(A829P) (Homo sapiens, UniProt P10721, A829P)
T21 construct: purchased DiscoveRx KINOMEscan

IRAK3 = target: T22, IRAK3 (Homo sapiens, UniProt Q9Y616)
T22 construct: purchased DiscoveRx KINOMEscan

VEGFR2 = target: T23, VEGFR2 (Homo sapiens, UniProt P35968)
T23 construct: purchased DiscoveRx KINOMEscan

SRC = target: T24, SRC (Homo sapiens, UniProt P12931)
T24 construct: purchased DiscoveRx KINOMEscan

HUNK = target: T25, HUNK (Homo sapiens, UniProt P57058)
T25 construct: purchased DiscoveRx KINOMEscan
T25 sequence (P57058 whole entry): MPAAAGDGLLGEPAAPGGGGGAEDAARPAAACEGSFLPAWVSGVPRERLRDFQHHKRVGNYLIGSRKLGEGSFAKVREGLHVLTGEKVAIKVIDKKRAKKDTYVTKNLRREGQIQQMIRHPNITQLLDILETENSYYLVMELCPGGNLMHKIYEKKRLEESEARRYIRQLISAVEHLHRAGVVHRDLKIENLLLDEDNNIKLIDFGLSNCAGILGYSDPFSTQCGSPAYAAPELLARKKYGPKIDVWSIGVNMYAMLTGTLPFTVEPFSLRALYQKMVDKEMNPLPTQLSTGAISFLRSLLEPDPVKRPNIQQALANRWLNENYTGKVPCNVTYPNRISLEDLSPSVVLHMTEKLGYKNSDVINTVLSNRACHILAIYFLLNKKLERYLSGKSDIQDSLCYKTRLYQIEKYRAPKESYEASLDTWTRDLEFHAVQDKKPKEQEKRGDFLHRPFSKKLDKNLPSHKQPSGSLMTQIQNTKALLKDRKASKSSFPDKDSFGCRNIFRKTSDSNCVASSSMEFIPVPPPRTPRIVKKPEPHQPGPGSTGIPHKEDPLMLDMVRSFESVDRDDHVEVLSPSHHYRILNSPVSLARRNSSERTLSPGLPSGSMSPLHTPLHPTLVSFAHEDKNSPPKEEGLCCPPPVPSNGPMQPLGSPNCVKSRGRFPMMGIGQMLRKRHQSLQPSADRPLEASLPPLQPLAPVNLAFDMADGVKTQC

SNRK = target: T26, SNRK (Homo sapiens, UniProt Q9NRH2)
T26 construct: purchased DiscoveRx KINOMEscan

ASK2 = target: T27, ASK2 (Homo sapiens, UniProt O95382)
T27 construct: purchased DiscoveRx KINOMEscan

HCK = target: T28, HCK (Homo sapiens, UniProt P08631)
T28 construct: purchased DiscoveRx KINOMEscan

FAK = target: T29, FAK (Homo sapiens, UniProt Q05397)
T29 construct: purchased DiscoveRx KINOMEscan

HPK1 = target: T30, HPK1 (Homo sapiens, UniProt Q92918)
T30 construct: purchased DiscoveRx KINOMEscan
T30 sequence (Q92918 whole entry): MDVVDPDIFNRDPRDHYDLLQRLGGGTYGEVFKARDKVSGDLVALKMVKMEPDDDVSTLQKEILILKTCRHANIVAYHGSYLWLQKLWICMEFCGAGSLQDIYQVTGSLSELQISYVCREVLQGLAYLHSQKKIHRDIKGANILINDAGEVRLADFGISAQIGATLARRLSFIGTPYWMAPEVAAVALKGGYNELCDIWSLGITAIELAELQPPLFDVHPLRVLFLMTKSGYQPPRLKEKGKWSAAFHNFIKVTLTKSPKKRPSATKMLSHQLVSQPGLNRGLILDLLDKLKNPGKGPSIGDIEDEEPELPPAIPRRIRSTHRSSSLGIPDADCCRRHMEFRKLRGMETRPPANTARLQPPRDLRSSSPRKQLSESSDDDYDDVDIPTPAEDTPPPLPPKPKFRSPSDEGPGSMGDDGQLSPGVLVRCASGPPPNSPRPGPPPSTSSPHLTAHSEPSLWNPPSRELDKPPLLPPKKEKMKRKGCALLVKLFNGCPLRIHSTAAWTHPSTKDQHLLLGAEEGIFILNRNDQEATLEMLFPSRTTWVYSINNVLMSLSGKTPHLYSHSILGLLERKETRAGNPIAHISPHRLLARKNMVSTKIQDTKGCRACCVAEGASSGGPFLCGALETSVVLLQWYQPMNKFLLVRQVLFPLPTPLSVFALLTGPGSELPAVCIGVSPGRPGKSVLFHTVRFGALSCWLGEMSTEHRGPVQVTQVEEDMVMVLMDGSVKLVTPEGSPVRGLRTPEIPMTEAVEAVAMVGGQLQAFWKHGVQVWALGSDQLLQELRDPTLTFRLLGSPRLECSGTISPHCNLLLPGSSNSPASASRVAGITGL

PIP5K1C = target: T31, PIP5K1C (Homo sapiens, UniProt O60331)
T31 construct: purchased DiscoveRx KINOMEscan
T31 sequence (O60331 whole entry): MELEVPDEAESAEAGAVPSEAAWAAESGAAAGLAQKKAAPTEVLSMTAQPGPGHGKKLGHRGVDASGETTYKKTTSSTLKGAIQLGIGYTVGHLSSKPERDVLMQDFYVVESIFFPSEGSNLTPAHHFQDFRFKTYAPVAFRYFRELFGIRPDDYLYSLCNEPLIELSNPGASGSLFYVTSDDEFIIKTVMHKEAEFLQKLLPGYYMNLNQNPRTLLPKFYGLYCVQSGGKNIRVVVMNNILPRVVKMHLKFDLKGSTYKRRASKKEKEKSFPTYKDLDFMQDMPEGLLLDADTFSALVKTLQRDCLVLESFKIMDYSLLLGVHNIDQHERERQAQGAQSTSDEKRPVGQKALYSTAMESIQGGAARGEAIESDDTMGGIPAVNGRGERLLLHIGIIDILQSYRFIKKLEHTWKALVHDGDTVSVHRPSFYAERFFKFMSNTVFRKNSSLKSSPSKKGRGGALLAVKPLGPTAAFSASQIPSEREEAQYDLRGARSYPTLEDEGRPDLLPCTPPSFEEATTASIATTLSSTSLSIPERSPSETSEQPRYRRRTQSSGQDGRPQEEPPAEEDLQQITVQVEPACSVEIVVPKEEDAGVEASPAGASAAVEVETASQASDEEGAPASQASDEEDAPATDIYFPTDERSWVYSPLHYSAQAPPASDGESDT

[1] = target: T32, ABL1(E255K)-phosphorylated (Homo sapiens, UniProt P00519, E255K)
T32 construct: purchased DiscoveRx (KINOMEscan service)

ERBB3 = target: T33, ERBB3 (Homo sapiens, UniProt P21860)
T33 construct: purchased DiscoveRx KINOMEscan

HIPK4 = target: T34, HIPK4 (Homo sapiens, UniProt Q8NE63)
T34 construct: purchased DiscoveRx KINOMEscan

CAMK1G = target: T35, CAMK1G (Homo sapiens, UniProt Q96NX5)
T35 construct: purchased DiscoveRx KINOMEscan

CLK2 = target: T36, CLK2 (Homo sapiens, UniProt P49760)
T36 construct: purchased DiscoveRx KINOMEscan

AURKA = target: T37, AURKA (Homo sapiens, UniProt O14965)
T37 construct: purchased DiscoveRx KINOMEscan
T37 sequence (O14965 whole entry): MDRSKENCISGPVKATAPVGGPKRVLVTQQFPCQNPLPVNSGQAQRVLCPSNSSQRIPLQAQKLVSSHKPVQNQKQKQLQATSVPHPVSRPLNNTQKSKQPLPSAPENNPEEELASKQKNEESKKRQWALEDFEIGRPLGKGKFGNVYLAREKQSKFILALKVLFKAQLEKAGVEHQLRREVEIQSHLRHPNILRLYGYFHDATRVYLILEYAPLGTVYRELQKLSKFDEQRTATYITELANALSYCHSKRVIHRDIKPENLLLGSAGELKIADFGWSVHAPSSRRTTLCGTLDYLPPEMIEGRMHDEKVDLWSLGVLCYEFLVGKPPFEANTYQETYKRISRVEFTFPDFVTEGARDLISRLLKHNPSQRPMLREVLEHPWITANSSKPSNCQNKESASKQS

[2] = target: T38, JAK1(JH1domain-catalytic) (Homo sapiens, UniProt P23458)
T38 construct: JAK1(JH1domain-catalytic); purchased DiscoveRx KINOMEscan
T38 sequence (P23458 875-1154 limits assumed): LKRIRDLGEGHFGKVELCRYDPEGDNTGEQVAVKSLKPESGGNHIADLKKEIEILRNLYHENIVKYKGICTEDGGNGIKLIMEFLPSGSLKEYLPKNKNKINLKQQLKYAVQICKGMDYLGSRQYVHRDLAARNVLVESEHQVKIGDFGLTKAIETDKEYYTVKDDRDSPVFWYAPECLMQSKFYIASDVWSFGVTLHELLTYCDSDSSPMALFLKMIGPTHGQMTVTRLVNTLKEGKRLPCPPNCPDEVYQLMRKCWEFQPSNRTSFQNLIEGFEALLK

MKNK2 = target: T39, MKNK2 (Homo sapiens, UniProt Q9HBH9)
T39 construct: purchased DiscoveRx KINOMEscan

T1 sequence (Q8NI60 163-647): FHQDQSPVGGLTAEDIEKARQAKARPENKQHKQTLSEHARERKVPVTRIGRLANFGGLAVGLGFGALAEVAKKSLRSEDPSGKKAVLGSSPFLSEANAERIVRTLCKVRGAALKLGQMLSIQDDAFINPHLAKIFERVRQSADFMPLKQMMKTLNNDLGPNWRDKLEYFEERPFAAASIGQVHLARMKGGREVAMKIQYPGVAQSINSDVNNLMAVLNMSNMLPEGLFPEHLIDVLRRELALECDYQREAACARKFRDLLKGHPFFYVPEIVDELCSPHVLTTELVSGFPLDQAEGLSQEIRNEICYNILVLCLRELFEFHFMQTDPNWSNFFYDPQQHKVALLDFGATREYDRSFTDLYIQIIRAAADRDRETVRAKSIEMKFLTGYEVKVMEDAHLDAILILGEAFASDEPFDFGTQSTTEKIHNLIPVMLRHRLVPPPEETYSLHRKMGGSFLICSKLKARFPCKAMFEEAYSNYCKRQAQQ

CCN(C(=O)CO)[C@H]1CN(/C(=N\C#N)Nc2cccc(OC(F)F)c2)N=C1c1ccc(Cl)c(Cl)c1 [(S)-4]
remaining binding at 1 µM (ADCK3): 98%
remaining binding at 1 µM (SRPK1): 57%
remaining binding at 1 µM (MET(M1250T)): 86%
remaining binding at 1 µM (PIK3CA(Q546K)): 86%
remaining binding at 1 µM (DAPK1): 100%
remaining binding at 1 µM (CIT): 63%
remaining binding at 1 µM (PRKD3): 99%
remaining binding at 1 µM (SGK): 100%
remaining binding at 1 µM (MYO3A): 100%
remaining binding at 1 µM (CAMK2A): 100%
remaining binding at 1 µM (PIK3CB): 100%
remaining binding at 1 µM (MEK3): 100%
remaining binding at 1 µM (p38-gamma): 70%
remaining binding at 1 µM (ULK2): 100%
remaining binding at 1 µM (ROCK2): 95%
remaining binding at 1 µM (TIE2): 100%
remaining binding at 1 µM (CSK): 91%
remaining binding at 1 µM (IRAK4): 100%
remaining binding at 1 µM (DRAK2): 100%
remaining binding at 1 µM (DYRK1A): 100%
remaining binding at 1 µM (KIT(A829P)): 98%
remaining binding at 1 µM (IRAK3): 93%
remaining binding at 1 µM (VEGFR2): 100%
remaining binding at 1 µM (SRC): 79%
remaining binding at 1 µM (HUNK): 94%
remaining binding at 1 µM (SNRK): 85%
remaining binding at 1 µM (ASK2): 93%
remaining binding at 1 µM (HCK): 68%
remaining binding at 1 µM (FAK): 99%
remaining binding at 1 µM (HPK1): 88%
remaining binding at 1 µM (PIP5K1C): 86%
remaining binding at 1 µM [1]: 85%
remaining binding at 1 µM (ERBB3): 84%
remaining binding at 1 µM (HIPK4): 100%
remaining binding at 1 µM (CAMK1G): 98%
remaining binding at 1 µM (CLK2): 97%
remaining binding at 1 µM (AURKA): 96%
remaining binding at 1 µM [2]: 85%
remaining binding at 1 µM (MKNK2): 96%

— PMC4917279 (Journal of Medicinal Chemistry, 2016)
